Laboratory results: ChEMBL document CHEMBL5537196, “Discovery of KIN-3248, An Irreversible, Next Generation FGFR Inhibitor for the Treatment of Advanced Tumors Harboring FGFR2 and/or FGFR3 Gene Alterations” (J Med Chem, 2024)

Legend:
SNU-16 = test: Antiproliferative activity against human SNU-16 cells assessed as inhibition of cell growth incubated for 5 days by Cell-titer glo assay; settings: SNU-16, 120 h
CC-LP-1 [1] = test: Antiproliferative activity against human CC-LP-1 cells assessed as inhibition of cell growth incubated for 3 days by Cell-titer glo assay; settings: CC-LP-1, 72 h
CC-LP-1 [2] = test: Antiproliferative activity against human CC-LP-1 cells expressing FGFR2 V565F mutant assessed as inhibition of cell growth incubated for 3 days by Cell-titer glo assay; settings: CC-LP-1, 72 h
CC-LP-1 [3] = test: Antiproliferative activity against human CC-LP-1 cells expressing FGFR2 N550K mutant assessed as inhibition of cell growth incubated for 3 days by Cell-titer glo assay; settings: CC-LP-1, 72 h
[4] = Antiproliferative activity against human ICC13-7 cells assessed as inhibition of cell growth incubated for 3 days by Cell-titer glo assay; settings: ICC13-7, 72 h
[5] = Antiproliferative activity against human ICC13-7 cells expressing FGFR2 V565F mutant assessed as inhibition of cell growth incubated for 10 days by Cell-titer glo assay; settings: ICC13-7, 240 h
[6] = Antiproliferative activity against human ICC13-7 cells expressing FGFR2 N550K mutant assessed as inhibition of cell growth incubated for 10 days by Cell-titer glo assay; settings: ICC13-7, 240 h
RT-112 [7] = test: Antiproliferative activity against human RT-112 cells assessed as inhibition of cell growth incubated for 5 days by Cell-titer glo assay; settings: RT-112, 120 h
RT-112 [8] = test: Antiproliferative activity against human RT-112 cells expressing FGFR3 assessed as inhibition of cell growth incubated for 5 days by Cell-titer glo assay; settings: RT-112, 120 h
RT-112 [9] = test: Antiproliferative activity against human RT-112 cells expressing FGFR3 V555M mutant assessed as inhibition of cell growth incubated for 5 days by Cell-titer glo assay; settings: RT-112, 120 h
RT-112 [10] = test: Antiproliferative activity against human RT-112 cells expressing FGFR3 N540K mutant assessed as inhibition of cell growth incubated for 5 days by Cell-titer glo assay; settings: RT-112, 120 h
RT-112 [11] = test: Antiproliferative activity against human RT-112 cells expressing FGFR3 K650M mutant assessed as inhibition of cell growth incubated for 5 days by Cell-titer glo assay; settings: RT-112, 120 h
[12] = Half life in Sprague-Dawley rat at 5 mg/kg,iv administrated at 0.25 to 24 hrs by LC-MS/MS analysis; type: ADME, organism-based; settings: in vivo, time 0.25-24 hrs
[13] = Total clearance in Sprague-Dawley rat at 5 mg/kg,iv administrated at 0.25 to 24 hrs by LC-MS/MS analysis; type: ADME, organism-based; settings: in vivo, time 0.25-24 hrs
[14] = Cmax in Sprague-Dawley rat at 15 mg/kg,po administrated at 0.25 to 24 hrs by LC-MS/MS analysis; type: ADME, organism-based; settings: in vivo, time 0.25-24 hrs
[15] = AUC (0 to 24 hrs) in Sprague-Dawley rat at 15 mg/kg,po administrated at 0.25 to 24 hrs by LC-MS/MS analysis; type: ADME, organism-based; settings: in vivo, time 0.25-24 hrs
[16] = Oral bioavailability in Sprague-Dawley rat at 15 mg/kg administrated at 0.25 to 24 hrs by LC-MS/MS analysis; type: ADME, organism-based; settings: in vivo, time 0.25-24 hrs
[17] = Half life in Beagle dog at 5 mg/kg,iv administrated at 0.25 to 24 hrs by LC-MS/MS analysis; type: ADME, organism-based, Canis lupus familiaris; settings: in vivo, time 0.25-24 hrs
[18] = Total clearance in Beagle dog at 5 mg/kg,iv administrated at 0.25 to 24 hrs by LC-MS/MS analysis; type: ADME, organism-based, Canis lupus familiaris; settings: in vivo, time 0.25-24 hrs
[19] = Cmax in Beagle dog at 10 mg/kg,po administrated at 0.25 to 24 hrs by LC-MS/MS analysis; type: ADME, organism-based, Canis lupus familiaris; settings: in vivo, time 0.25-24 hrs
[20] = AUC (0 to 24 hrs) in Beagle dog at 10 mg/kg,po administrated at 0.25 to 24 hrs by LC-MS/MS analysis; type: ADME, organism-based, Canis lupus familiaris; settings: in vivo, time 0.25-24 hrs
[21] = Oral bioavailability in Beagle dog at 10 mg/kg administrated at 0.25 to 24 hrs by LC-MS/MS analysis; type: ADME, organism-based, Canis lupus familiaris; settings: in vivo, time 0.25-24 hrs
[22] = Intrinsic clearance in human liver microsomes; type: ADME, Microsome; settings: read-out: CLH
[23] = Intrinsic clearance in human hepatocyte measured per 10^6 cells; type: ADME, cell-based; settings: hepatocytes, read-out: CLH
[24] = Cmax in Beagle dog at 15 mg/kg,po administrated at 0.25 to 24 hrs by LC-MS/MS analysis; type: ADME, organism-based, Canis lupus familiaris; settings: in vivo, time 0.25-24 hrs
[25] = AUC (0 to 24 hrs) in Beagle dog at 15 mg/kg,po administrated at 0.25 to 24 hrs by LC-MS/MS analysis; type: ADME, organism-based, Canis lupus familiaris; settings: in vivo, time 0.25-24 hrs
[26] = Oral bioavailability in Beagle dog at 15 mg/kg administrated at 0.25 to 24 hrs by LC-MS/MS analysis; type: ADME, organism-based, Canis lupus familiaris; settings: in vivo, time 0.25-24 hrs
CC-LP-1 [27] = test: Antiproliferative activity against human CC-LP-1 cells expressing FGFR2 N550H mutant assessed as inhibition of cell growth incubated for 3 days by Cell-titer glo assay; type: functional, cell-based; settings: CC-LP-1, 72 h

| IC50 (SNU-16) [nM] | half-life [12] [h] | clearance [13] [mL/min/kg] | Cmax [14] [ng/mL] | AUC(0-t) [15] [ng·h/mL] | bioavailability [16] [%] | half-life [17] [h] | clearance [18] [mL/min/kg] | microsomal CLint [22] [µL/min/mg] | hepatocyte CLint [23] [µL/min/1e6 cells] | Compound | IC50 (CC-LP-1 [1]) [nM] | IC50 (CC-LP-1 [2]) [nM] | IC50 (CC-LP-1 [3]) [nM] | IC50 [4] [nM] | IC50 [5] [nM] | IC50 [6] [nM] | IC50 (RT-112 [7]) [nM] | IC50 (RT-112 [8]) [nM] | IC50 (RT-112 [9]) [nM] | IC50 (RT-112 [10]) [nM] | also measured |
| --- | --- | --- | --- | --- | --- | --- | --- | --- | --- | --- | --- | --- | --- | --- | --- | --- | --- | --- | --- | --- | --- |
| 6 | 6.17 | 26.8 | 519 | 1500 | 16.4 | 4.94 | 44.4 | 106 | 14.4 | C=CC(=O)N1C[C@@H](n2nc(C#Cc3cc4ncn(C5CC5)c4cc3Cl)c(C(N)=O)c2NC)C[C@@H]1COC | 4.3 | 1.8 | 6.5 | 2.2 | 0.9 | 6.1 | 7.2 | 11.2 | 19.5 | 26.3 | IC50 (RT-112 [11]): 12.8 nM; Cmax [19]: 289 ng/mL; AUC(0-t) [20]: 498 ng·h/mL; bioavailability [21]: 13.1% |
| – | 4.88 | 26.1 | 1720 | 3020 | 31.4 | 6.46 | 31.1 | 47.4 | 6.6 | C=CC(=O)N1C[C@@H](n2nc(C#Cc3ccc4c(c3)ncn4C3CC3)c(C(N)=O)c2NC)C[C@@H]1COC | – | – | – | – | – | – | – | – | – | – | Cmax [19]: 124 ng/mL; AUC(0-t) [20]: 312 ng·h/mL; bioavailability [21]: 4.6% |
| 4 | 8.85 | 25 | 760 | 2620 | 27 | 11.4 | 31.8 | 97.1 | 12 | C=CC(=O)N1C[C@@H](n2nc(C#Cc3cc4ncn(C5CC5)c4cc3F)c(C(N)=O)c2NC)C[C@@H]1COC | 2.3 | 1.5 | 3.6 | 1.4 | 1.4 | 3.5 | – | – | – | – | Cmax [24]: 770 ng/mL; AUC(0-t) [25]: 1700 ng·h/mL; bioavailability [26]: 23.5% |

| Compound | IC50 (SNU-16) [nM] | half-life [12] [h] | clearance [13] [mL/min/kg] | Cmax [14] [ng/mL] | AUC(0-t) [15] [ng·h/mL] | bioavailability [16] [%] | half-life [17] [h] | clearance [18] [mL/min/kg] | microsomal CLint [22] [µL/min/mg] | hepatocyte CLint [23] [µL/min/1e6 cells] | IC50 (CC-LP-1 [1]) [nM] | IC50 (CC-LP-1 [2]) [nM] | IC50 (CC-LP-1 [3]) [nM] | IC50 [4] [nM] | IC50 [5] [nM] | IC50 [6] [nM] | IC50 (RT-112 [7]) [nM] | IC50 (RT-112 [8]) [nM] | IC50 (RT-112 [9]) [nM] | IC50 (RT-112 [10]) [nM] | also measured |
| --- | --- | --- | --- | --- | --- | --- | --- | --- | --- | --- | --- | --- | --- | --- | --- | --- | --- | --- | --- | --- | --- |
| COc1cc(OC)cc(N(CCNC(C)C)c2ccc3ncc(-c4cnn(C)c4)nc3c2)c1 [ERDAFITINIB] | 2.7 | – | – | – | – | – | – | – | – | – | 2.3 | 1370 | 94.8 | 1.1 | > 2800 | 131 | 1.3 | 2.4 | 603 | 107 | IC50 (CC-LP-1 [27]): 10.8 nM; IC50 (RT-112 [11]): 39 nM |
